Data set [1] relates to corpora cavernosa. Kind of data set: Effect on Nitroprusside or Ach-induced Relaxation in Isolated Rat Corpora Cavernosa. Details: species or system Male SD rats. The settings on record: compound at 10^-7 M. Here is the method: (a) Effect of Test Compound on Nitroprusside or Ach-induced Relaxation in Isolated Rat Corpora Cavernosa
Male SD rats were anesthetized with sodium pentobarbital 50 mg/kg intraperitoneally, and the corpora cavernosa was excised. The tunica albuginea was dissected according to the methods described by Italiano et al. (Pharmacological Research, 30, No.4, 1994) and used for in vitro pharmacological study. The erectile tissue strip was placed in a 25 ml organ bath containing Krebs-Ringer solution. The bath was maintained at 37° C. and bubbled with 95% O2 and 5% CO2. The strip was stretched with a resting force of 0.25 g, and isometric contraction were recorded via force development transducer on a recorder.
The strip was equilibrated in the Krebs-Ringer solution for about 60 minutes, and preconstructed by 0.1 mM norepinephrine to ascertain the responsibility of each preparation. The strip was washed several times, and then constricted by 0.1 mM norepinephrine. After getting stable constrictile response to norepinephrine, the first dose-response curve for sodium nitroprusside or Ach was obtained. After washing a few times for 60 minutes, the strip was constricted by norepinephrine again, and the second dose-response curve for sodium nitroprusside or Ach was obtained. The test compound was added 30 minutes before adding norepinephrine.

The subject of data set [2] is streptozotocin-induced diabetes mellitus. Briefly: Diabetic Glomerulosclerosis Model (streptozotocin). Format: in vivo, Male SD rats. Here is the method:
Diabetic Glomerulosclerosis Model
6 weeks old Male SD rats were treated with streptozotocin (60 mg/kg i.v.) to induce diabetes mellitus. One week after streptozotocin treatment, test compound, 3.2, 10 mg/kg was started to be orally administered twice a day for 16 weeks.

Data set [3] concerns blood flow of corpus spongiosum penis and corpus cavernosum penis. Kind of data set: Impotence Model (c): penile blood flow in anesthetized beagle. Format: in vivo, Male beagle. The method, then:
(c) Male beagle weighing 8.0-12.0 kg were anesthetized with pentobarbital sodium (35 mg/kg, i.v.). After tracheotomy, the animal was artificially ventilated using a volume-cycled ventilator. The femoral artery was cannulated for continuous blood pressure and heart rate monitoring. The femoral vein was cannulated for maintenance of anesthesia and administration of tested compound. Two laser-dopper probes were placed in the corpus spongiosum penis and corpus cavernosum penis for recording blood flow. After a period of stabilization of all parameters, tested compound was injected intravenously at a various concentration. […] The increase in blood flow reached a peak value of 55% of baseline and continued for longer than 15 minutes after the administration of said compound 1.0 mg/kg.

Data set [4] in a line: Toxicity by repetitive oral administration. Type of data set: in vivo, SD rat. The settings on record: 32 mg/kg once a day orally, 14 consecutive days.
In data set [5] the target is T1, cGMP-PDE (Homo sapiens, UniProt O76074).
T1 construct: cGMP-PDE was separated from other isozymes in human platelets; from tissue; host or cells: human platelets
Briefly: cGMP-phosphodiesterase (PDE) Assay (human platelets). Format: biochemical.

Data set [6] concerns aorta (spirally cut strips). Briefly: Smooth Muscle Relaxant: noradrenaline-contracted rat aorta strips. Details: species or system male Wistar rats. The settings on record: contraction by noradrenaline 1 μM, 37° C. The method, then: The aorta were carefully removed from male Wistar rats, cleaned of fat and extraneous tissue. Spirally cut strips of the aorta were placed in a 25 ml organ bath containing Tyrode solution of the following composition (mM); NaCl, 137; KCl, 2.7; CaCl2, 1.8; NaH2 PO4, 0.4; NaHCO3, 12.0; MgSO4, 1.1; glucose, 5.6. The bath was maintained at 37° C. and bubbled with 95% O2 and 5% CO2. The spirally cut strip was stretched to a resting force of 1.0 g, and the isometric contraction was recorded via a force development transducer on an ink writing recorder. Tissues were equilibrated for 60 minutes before contraction was induced by noradrenaline (NA, 1 μM). The test compounds were cumulatively added to organ bath in increasing concentrations ranging from 10^-8 to 10^-5 M, after maximum stable constriction to NA had been achieved.

The subject of data set [7] is Cyclosporin nephritis. Kind of data set: Cyclosporin Nephritis Model. The settings on record: 3.2 mg/kg orally twice a day for two weeks; cyclosporin 50 mg/kg daily. Type of data set: in vivo, Spontaneously hypertensive rats. The method, then:
Cyclosporin Nephritis Model
Spontaneously hypertensive rats weighing 250-300 g were used. Cyclosporin dissolved in olive-oil containing 5% ethanol was given orally to the animals in a daily dose 50 mg/kg for 2 weeks. After the last dosing of cyclosporin, 24-hours urine was collected for urinalysis. Blood was withdrawn from the abdominal aorta under ether anesthesia 24 hours after the last dosing of cyclosporin, and plasma was separated by centrifugation for biochemical analysis. The animal were bled to death and kidneys were removed for histopathological examination.
The each test compound (3.2 mg/kg) was dissolved in PEG 400 and given orally by the volume of 1 ml/kg twice a day for two weeks.
Biochemistry and urinalysis: Urine volume, plasma creatinine, urine creatinine, blood urea nitrogen, plasma sodium, urine sodium, plasma potassium and urine potassium, were measured with an autoanalyzer (TBA-20R Toshiba, OM-6020 Daiichi Kagaku).
Histopathology: The kidneys were fixed in phosphate-buffered 10% formalin and its paraffin specimens were prepared and these sections were stained with hematoxylin.

[8] abbreviates: 10 mg/kg orally twice a day for 16 weeks.
Where [9] appears, read: 3.2, 10 mg/kg orally twice a day for 16 weeks.

Bounds are passed on as bounds.

Experimental findings from US6069156A, “Indole derivatives as cGMP-PDE inhibitors” (Fujisawa Pharmaceutical Co., Ltd., priority 1995, dated 2000) are described below.

What is called IC50 is the concentration that gives 50% inhibition. Low values mean greater potency, high ones weaker potency.

As to `CCCc1c(C(=O)C(C)C)c2ccc(C(N)=O)cc2n1Cc1ccccc1Cl` [Example 6, 1-(2-chlorobenzyl)-3-isobutyryl-2-propylindole-6-carboxamide], in data set [1], the “Ach-induced relaxation of corpora cavernosa” value is listed as “potentiated Ach-induced relaxation of corpora cavernosa” and the “nitroprusside-induced relaxation of corpora cavernosa” value is listed as “potentiated nitroprusside-induced relaxation of corpora cavernosa”. For the same compound, in data set [1] (contraction by 10^-4 M norepinephrine, control 11.0%), the “100 μM Ach-induced relaxant response” value amounted to 18.7%. In data set [2] (setting [8]), the “4-hydroxyproline contents in renal cortex” value is recorded as “perfectly inhibited the increased 4-hydroxyproline contents in renal cortex”, the “reduction on average of the elimination of protein in urine” value stood at 37% and the “valiance of RR intervals in cardioelectrography” value is reported as “perfectly recovered the reduced valiance of RR intervals”. Further, in data set [2] (setting [9]), the “blood flow in ears” value is on record as “improved the decreased blood flow in ears”, the “onset of diabetic cataract” value is recorded as “retarded the onset of diabetic cataract”, the “parameters reflecting the abnormalities of peripheral circulation” value is reported as “improved the parameters reflecting the abnormalities of peripheral circulation” and the “skin temperature on foot pad” value is “raised the decreased skin temperature on foot pad”. Also, in data set [3] (1.0 mg/kg intravenous), the “duration of increase in blood flow” value was over 15 min and the “peak value of increase in blood flow (of baseline)” value was found to be 55%. Besides, in data set [3] (intravenous), the “blood flow of corpus spongiosum penis and corpus cavernosum penis” value was “increased in the blood flow of both corpus spongiosum penis and corpus cavernosum penis”; the hemodynamic change result is “without hemodynamic change”. In addition, the “death on repetitive oral administration” value in data set [4] is listed as “the dead at dose of 32 mg/kg once a day for 14 consecutive days could not be observed”. In data set [5], this compound registered an IC50 of under 100 nM. In data set [6], this compound had an IC50 of under 100 nM. Also, in data set [7], the “recovery in a measure of blood urea nitrogen” value is “more than 50%” and the “recovery in a measure of creatinine clearance (ml/kg/min)” value is “more than 40%”.
